Legend:
yeast HSP90 = yeast HSP90 (Saccharomyces cerevisiae, UniProt P02829); experiment: Hsp90 ATPase assay (malachite green); format: biochemical
Procedure: (§1) For present invention, the ATPase activity of yeast HSP90 was measured using malachite green assay. Formula I compounds for primary antitumoral activity were treated in human colorectal cancer cells (HCT116) showing increased expression levels of HSP90 client protein and cotoxicity IC50 values was measured as a result.

[1] = tested on: A2780 Human ovarian cancer cells; experiment: In vivo antitumor efficacy, A2780 subcutaneous xenograft; conditions: 200 mg/kg po qdx5, 2 weeks, A2780 xenograft in female Balb/c nude mice
Procedure: A2780 Human ovarian cancer cells were established as subcutaneous xenografts by injection of 8×10^6 cells into the flanks of adult female Balb/c nude mice. Mice with established tumors (50-200 mm^3) were selected for study (n=3-6/treatment group). The test compounds were formulated in ethanol-PEG400-DW and administered orally (po) at a dose of 200 mg/kg. The vehicle alone was administered to control groups. Animals were dosed 5 days per week (Monday through Friday) for 2 consecutive weeks. Animals were weighed and tumor size was determined twice weekly by caliper measurements, and tumor volumes were calculated (volume=[l×w^2]/2(mm^3), where l and w refer to the larger and smaller dimensions collected at each measurement). The mean tumor volumes of each group were calculated. The change in mean treated tumor volume was divided by the change in mean control tumor volume, multiplied by 100 and subtracted from 100% to give the tumor growth inhibition for each group.

[2] = tested on: human colorectal cancer cells (HCT116); experiment: Growth inhibition assay (cytotoxicity) in HCT116; format: cell-based; conditions: HCT-116
Procedure: as §1

[3] = Mouse pharmacokinetics of prodrug after oral gavage; format: in vivo, Balb/c male mice; conditions: single PO dose 100 mg/kg
Procedure: Pharmacokinetics test was carried out in order to confirm the change from invented prodrugs to parent compounds in vivo. Balb/c male mice are dosed with a prodrug by oral gavages. A single administration of a prodrug is given and a dose volume of 10 mL/kg is used for PO doses.
Blood samples are collected in lithium heparin coated tubes at 10, 20, 30, 60, 120 min. Plasma is isolated by centrifugation and frozen before analysis. Plasma samples are prepared by liquid-liquid extraction with Ethyl acetate containing internal standard. Quantification is by using a LC-MS/MS method specific to the selected compound. Animals that had been dosed the selected compound were analyzed for prodrug and the parent compound. Pharmacokinetics parameters are calculated using WinNonLinnon compartmental analysis software.

Sequence of yeast HSP90 (P02829 whole entry): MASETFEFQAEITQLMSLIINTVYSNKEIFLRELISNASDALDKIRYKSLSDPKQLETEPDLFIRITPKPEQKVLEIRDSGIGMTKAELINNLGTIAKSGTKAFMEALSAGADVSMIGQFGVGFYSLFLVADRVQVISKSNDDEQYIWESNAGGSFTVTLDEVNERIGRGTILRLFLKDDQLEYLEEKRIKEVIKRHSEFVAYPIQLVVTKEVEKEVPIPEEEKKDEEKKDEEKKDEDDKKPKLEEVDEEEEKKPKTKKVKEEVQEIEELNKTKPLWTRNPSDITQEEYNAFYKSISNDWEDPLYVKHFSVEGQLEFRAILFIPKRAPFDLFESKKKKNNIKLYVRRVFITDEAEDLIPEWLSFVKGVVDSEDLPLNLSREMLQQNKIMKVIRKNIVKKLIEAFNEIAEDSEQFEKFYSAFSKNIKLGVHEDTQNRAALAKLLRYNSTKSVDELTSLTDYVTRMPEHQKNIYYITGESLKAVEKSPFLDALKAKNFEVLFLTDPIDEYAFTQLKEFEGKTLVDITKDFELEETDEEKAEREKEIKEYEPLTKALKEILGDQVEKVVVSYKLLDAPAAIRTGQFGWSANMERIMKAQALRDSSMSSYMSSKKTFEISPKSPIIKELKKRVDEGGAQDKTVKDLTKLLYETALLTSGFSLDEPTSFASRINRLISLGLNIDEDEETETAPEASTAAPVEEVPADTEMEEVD

## CCNC(=O)c1noc(-c2cc(C(C)C)c(O)cc2O)c1-c1noc(C)n1 [Compound I-60, 5-(2,4-Dihydroxy-5-isopropylphenyl)-N-ethyl-4-(5-methyl-1,2,4-oxadiazol-3-yl) isoxazole-3-carboxamide]
Yeast HSP90
  IC50: < 500 nM
[1]
  % TGI: 50%
[2]
  IC50: < 500 nM

## CCNC(=O)c1noc(-c2cc(C(C)C)c(O)cc2O)c1-c1cnn(CC)c1 [Compound I-104, 5-(2,4-Dihydroxy-5-isopropylphenyl)-N-ethyl-4-(1-ethyl-1H-pyrazol-4-yl)isoxazole-3-carboxamide]
Yeast HSP90
  IC50: 500 to 1000 nM
[2]
  IC50: < 500 nM

## CCNC(=O)c1noc(-c2cc(C(C)C)c(O)cc2O)c1-c1cnn(C(C)C)c1 [Compound I-105, 5-(2,4-Dihydroxy-5-isopropylphenyl)-N-ethyl-4-(1-isopropyl-1H-pyrazol-4-yl)isoxazole-3-carboxamide]
Yeast HSP90
  IC50: 500 to 1000 nM
[2]
  IC50: < 500 nM

## CCNC(=O)c1noc(-c2cc(C(C)C)c(OC(=O)[C@@H]3CCCN3C(=O)OC(C)(C)C)cc2OC(=O)C2CCCN2C(=O)OC(C)(C)C)c1-c1ccn(C)n1 (stereo partly drawn) [II-8, (2S,2′S)-1-tert-Butyl^′2,2-4-(3-(ethylcarbamoyl)-4-(1-methyl-1H-pyrazol-3-yl)isoxazol-5-yl)-6-isopropyl-1,3-phenylene dipyrrolidine-1,2-dicarboxylate]
[3]
  exposure of the active pharmaceutical agent (I-97) relative to the starting dose: optimal exposure
